# Assay results from patent US20220241314A1, “COMPOSITIONS AND METHODS FOR TREATMENT OF HEPATITIS B VIRUS INFECTION” (priority 2019, published 2022).
# {ppp} = triphosphate
# How the values were obtained:
# [1] = tested on: innate immune response genes; assay: Innate immune gene mRNA expression (RT-qPCR); type: cell-based, human; details: HepG2-hNTCP cells, 24 and 72 hours
# [2] = tested on: HBV cccDNA; assay: Time-of-addition experiments on cccDNA synthesis; type: cell-based, HBV (Genotype D); details: for HBV cccDNA level: HepG2-hNTCP and dHepaRG
# Procedure: FIGS. 3A-3F illustrate that F7 and poly-U/UC PAMP suppress de novo HBV cccDNA synthesis. (3A) Upper: Infection and poly-U/UC PAMP treatment schedule. Cells were treated with 100 ng/ml of poly-U/UC PAMP either for 24 hours before (Pre), for 48 hours after HBV infection (Post), or for 72 hours (pre/post). At 3 dpi cells were harvested and Hirt extracts were prepared (3B) HepG2-hNTCP cells and (3C) dHepaRG cells were analyzed by Southern blot (upper) and RT-qPCR (lower). For RT-qPCR. anal sis, values from DMSO treated control were set to 100% respectively, and data are shown as mean±standard deviations (SD) percentage of cccDNA in control samples. ***P<0.005, and ns=non-significant. (3D) HBV infection and F7 treatment schedule. Cells were treated with F7 (10 μM) either for 24 hours before (Pre), 24 hours during the time of infection (Co), d8 hours after infection (Post), or 96 hours pre/co/post). At 3 Dpi, the cells were harvested and. Hirt extracts prepared HepG2-hNTCP (3E) and dHepaRG cells (3F). Upper panels show Southern blot analysis. Lower panels show or RT-qPCR analysis and percent of cccDNA remaining in treated cells compared to control DMS)-treated cells. Values from DMSO-treated control cultures were set to 100%. Data was presented as mean±standard deviations (SD), *P<0.01, **P<0.005, ***P<0.001, ****P<0.0001 and ns=non-significant. CsA served as a treatment control. For Southern blots the position of mass markers are indicated.
# To further define inhibitory effect of F7 and poly-U/UC on cccDNA biosynthesis, time-of-addition experiments were conducted in HepG2-hNTCP and dHepaRG cells. For poly-U/UC PAMP, treatment for 24 hours pre-infection (pre-treatment), from 1 to 3 dpi (post-treatment), and from 24 hours pre-infection onward through 3 dpi (pre/post-treatment) were conducted (FIG. 3A). […]
# [3] = tested on: HBV cccDNA; assay: cccDNA levels in HBV-infected RIG-I or MDA5 knockout HepG2-hNTCP cells (Southern blot); type: cell-based, HBV (Genotype D); details: HepG2-hNTCP-NT and HepG2-hNTCP-MKO cells, single treatment at 1 dpi, harvested 3 dpi
# Procedure: FIGS. 6A-6D illustrate that F7 and poly-U/UC PAMP specifically signal IRF3 activation through RIG-I to suppress HBV cccDNA. (6A) F7 was administered for 24 hours to HepG2-hNTCP-NT (expressing non-targeting guide RNA), RKO (RIG-I knockout expressing RIG-I-targeting guide RNA), and MKO (MDA5-knock out expressing MDA5-targeting guide RNA). Cells were harvested and analyzed by immunoblot. The levels of protein expression by p-IRF3 (S386 phosphorylated, active IRF3), IRF3 (total IRF), IFIT1, RIG-I, and MDA5 relative to the expression level of tubulin were determined using respective antibodies. (6B) HepG2-hNTCP-NT, RKO, and MKO cells were treated with 100 ng,/ml of X-RNA or 100 ng/ml or 200 ng/ml of poly-U/UC PAMP for 24 hr. Cells were harvested and analyzed by immunoblot as in (6A). (6C and 6D) Cells were infected with HBV at moi of 1000 Geq/cell. After 24 hour cultures were treated with DMSO (−; negative control), CsA (treatment control), (6C) 10 μM) or F7 or (6D) X RNA or poly-U/UC PAMP. Three days later the cells were harvested, Hirt extracts prepared and subjected to Southern blot analysis using as HBV-DNA probe. The positions of mass markers are indicated. Values beneath each lane show percent cccDNA remaining compared to control treatment. […]
Molecule,"mRNA expression of innate immune response genes (IFNs, ISGs, IRF3-target genes) [1]","HBV cccDNA level ([2]; F7 10 μM administered once pre or co-treatment, 3 dpi)",HBV cccDNA level ([2]; F7 10 μM administered post-infection or pre/co/post through 3 dpi),cccDNA levels [3],"synthesis of cccDNA ([2]; poly-U/UC PAMP 100 ng/ml pre-, post- and pre/post-treatment, HepG2-hNTCP and HepaRG cells, 3 dpi)"
"O=C(Nc1ccc2nc(NC(=O)c3ccc4ccccc4c3)sc2c1)c1ccccc1 [F7, N-(6-benzamido-1,3-benzothiazol-2-yl)naphthalene-2-carboxamide]",induced only IRF3-target gene expression,little effect on HBV cccDNA level,significant suppression of cccDNA levels,reduced cccDNA levels,–
"poly-U/UC PAMP: ~100 nt PAMP motif from the HCV genome comprising 5′ppp and the poly U/UC region, recognized by RIG-I; formulated in liposome (nucleic acid, RNA, 5' {ppp}, backbone and methylation of C not given here; formulated in liposome, ~100 nt PAMP motif from the HCV genome comprising 5′ppp and the poly U/UC region, recognized by RIG-I; formulated in liposome) GGCCAUCCUGUUUUUUUCCCUUUUUUUUUUUCUUUUUUUUUUUUUUUUUUUUUUUUUUUUUUUUUUCUCCUUUUUUUUUCCUCUUUUUUUCCUUUUCUUUCCUUU",induced type I and type III IFN and ISG expression,–,–,cccDNA was suppressed,uniformly significantly suppressed
